Assays:
Assay type in all cases: in vivo, mouse
SAMP8 mice = test: Novel Object Recognition Test (NORT) in SAMP8 mice
Text: The Senescence Accelerated Mouse Prone 8 (SAMP8) strain is a non-transgenic model for neurodegeneration reminiscent of Alzheimer's disease (T Takeda, Neurobiol Aging 1999, 20(2):105-10). Memory deficits appear around 5 months of age in SAMP8 mice and can be reliably assessed using the Novel Object Recognition Test (NORT).
Males and females were separated in two different cohorts and all treatments started at 5 months of age. […] Based on the results obtained in the first experiment, doses were adjusted in a second experiment using male mice.
The dose was calculated according to the animal water consumption average par cage and adjusted weekly. The test compound (or vehicle) was available for 5 days followed by a 2 day clearance in a weekly period.
NORT is used to assess animal's behavior when it is exposed to a novel and a familiar object (M Antunes and G Biala, Cogn Process. 2012, 13(2): 93-110). […]
The NORT test was performed after 2 (n=16/group) and repeated at 4 (n=10/group) months of treatment (between […] and 6:30 pm). […] During this second trial, objects A and B were placed in the maze, and the time that the animal explored the new object (tn) and the old object (to) were video-recorded. […]
Statistical analysis was performed using the GraphPad Prism 6.0 software package. NORT data from SAMP8 mice was analyzed by one-way ANOVA with treatment as the main factor. […]

TUBB2C = test: Microarray gene expression, hippocampus of SAMP8 mice (Example 3), housekeeping gene; details: SAMP8 female pool
Procedure: (§1) Total RNA was extracted from samples using the RNeasy extraction kit (Qiagen). The quality and concentration of the RNA was analyzed using the Agilent 2100 bioanalyzer and NanoDrop™ ND-1000 (Thermo Scientific). Samples with RNA integrity number (RIN)<6.0 were discarded. Total RNA (0.5 μg) amplification and labelling with Cy3 or Cy5 was carried out using the Eberwein mRNA amplification procedure (Van Gelder et al, Proc Natl Acad Sci USA 1990, 87:1663-1667) employing the MessageAmp™ aRNA amplification kit from Ambion (Applied Biosystems) following the manufacturer's instructions with minor modifications. As hybridization controls, plant mRNAs were transcribed from a plasmid containing the Zea mays Xet (xyloglucan endo-transglycosylase) cDNA and from a plasmid containing the Zea mays Zmmyb42 cDNA, independently prepared Cy3 and Cy5 labelled aRNA from these two RNAs using the Eberwein mRNA amplification procedure (as disclosed in Cerdà et al, Gen Comp Endocrinol 2008, 156:470-481).
(§2) The Cy3- and Cy5-labelled cRNAs and spikes were combined and hybridized to the microarray described in Example 2.6 for 17 h at 60° C. using Agilent's gaskets G2534-60002, G2534A hybridization chambers and DNA Hybridization Oven G2545A, according to the manufacturer's instructions. More specifically, equal amounts of Cy3 and Cy5 labeled Xet aRNA as well as equal amounts of Cy3 and Cy5 labeled Zmmyb42 aRNA were spiked into each mixture hybridized to the array. Arrays were washed and raw data were obtained using Agilent's DNA Microarray Scanner G2505B and Feature Extraction software (v10.1). The raw fluorescence intensity data were processed using applicant's proprietary software, and consists in the following operations:
(§3) Data normalization was carried out by an improved version of the nonlinear Q-splines normalization method (Workman et al., Genome Biol 2002, 3(9):research0048.1-0048.16). Normalization results were presented graphically as MA plots, as first described by Dudoit et al (Dudoit et al, Statistica Sinica, 2002, 12:111-139). Each point corresponds to a probe of the DNA array. M values (vertical axis) are the log-differential expression ratios. A values (horizontal axis) are the log-intensities of the spots. M and A are calculated from the Cy5 and Cy3 intensity values as of each spot. The DNA Array data is normalized using an improved version of non-linear Q-Splines normalization described by Workman et al., Genome Biol 2002, 3(9):research0048.1-0048.16. This process is useful to correct the deviation of the M values from the statistical assumption that most of the spots have M=0 in MA plots. The method allows the adjustment of all M values to form a cloud centered at M=0 in all intensity ranges. The data used to calculate the normalization fitting curve is the totality of the raw measurement dataset, excluding the signals for the probes for the spiked-in plant RNA controls and negative controls. In order to be able to normalize properly the data among all the experiments, the probe-set must include an important group of genes that should have no change (M=0) in the experiment. The normalization function is then applied to all the data, including controls.
(§4) Normalized and log-transformed data were used to calculate log 2 (sample/control) and Fold Change (FC) values. No background subtraction was applied to the signal intensity values during data processing, permitting robust selection of differentially expressed genes with low expression levels at the cost of potential sub-estimation of change when intensity levels are close to the array background level.
(§5) The technical replicate analysis is the statistical processing of the microarray data. Replicates were calculated to measure oligo replicates on an array or between replicates of experiments on different arrays (i.e. hybridization of the same sample). […]

TUBB3 = test: as above; details: SAMP8 female pool
Procedure: as §1, §2, §3, §4, §5

Which “memory loss as assessed by NORT” value (SAMP8 mice; SAMP8 males and females, after 2 m and 4 m of treatment) does the source give for “(−) 5-((((trans)-2-(4-(benzyloxy)phenyl)cyclopropyl)amino)methyl)-1,3,4-oxadiazol-2-amine [Compound 1]” here?
The value was “completely prevents memory loss”.

And the “memory deficits (NORT), medium- and long-term memory” value (SAMP8 mice; SAMP8 males, 0.32 and 0.96 mg/kg/day in drinking water, 2 and 4 months)?
The value was “rescued the memory deficits”.

And the “Hybridization signal sample_Cy5 TUBB2C” value (TUBB2C; HD 3.2 mg/kg/day)?
The value was 9173.

What about the “log2 (sample/control) TUBB2C” value (TUBB2C; HD 3.2 mg/kg/day vs SAMP8 VEH) of the same substance?
Its value is 0.1327.

And the “Hybridization signal sample_Cy5 TUBB2C” value (TUBB2C; LD 0.96 mg/kg/day)?
The value was 9392.47.

And the “log2 (sample/control) TUBB2C” value (TUBB2C; LD 0.96 mg/kg/day vs SAMP8 VEH)?
The value was 0.1199.

What about the “Hybridization signal sample_Cy5 TUBB3” value (TUBB3; HD 3.2 mg/kg/day) of the same substance?
Its value is 3168.4.

What about the “log2 (sample/control) TUBB3” value (TUBB3; HD 3.2 mg/kg/day vs SAMP8 VEH) of the same substance?
Its value is 0.05769.

What about the “Hybridization signal sample_Cy5 TUBB3” value (TUBB3; LD 0.96 mg/kg/day) of the same substance?
The value was 3002.3.

And the “log2 (sample/control) TUBB3” value (TUBB3; LD 0.96 mg/kg/day vs SAMP8 VEH)?
The value was 0.04498.

— patent publication US20180284095A1, “BIOMARKERS ASSOCIATED WITH LSD1 INHIBITORS AND USES THEREOF” (Oryzon Genomics, S.A., priority 2015, published 2018)
